Assay results as given in the supplement of paper PMC10307832.

What was measured:
Test in all cases: relative viability (nuclei count vs DMSO), 5 days (fraction); higher = more cells survive
AZ505 + Olaparib = compound: C1CCC(CC1)N(CCNCCC2=C3C(=C(C=C2)O)NC(=O)CO3)C(=O)CCNCCC4=CC(=C(C=C4)Cl)Cl [AZ505] + O=C(c1cc(Cc2n[nH]c(=O)c3ccccc23)ccc1F)N1CCN(C(=O)C2CC2)CC1 [Olaparib] (partner 8 µM)
How it was run: (§1)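 The day after seeding in 1536-well plates, lung cancer cell lines were treated by pin tool with a single drug, or with a fixed anchor-drug dose together with five library-drug doses (not always all listed) in √10 steps. After 5 days, a combined fix-and-stain solution (final 0.05% Triton X-100, 1% formaldehyde, 1 ug/ml Hoechst) was added. Nuclei counted on 4× images gave relative viability as treated counts over vehicle counts, reported as the median of duplicate plates.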

Dactolisib + Lapatinib = compound: Cn1c(=O)n(-c2ccc(C(C)(C)C#N)cc2)c2c3cc(-c4cnc5ccccc5c4)ccc3ncc21 [Dactolisib] + CS(=O)(=O)CCNCc1ccc(-c2ccc3ncnc(Nc4ccc(OCc5cccc(F)c5)c(Cl)c4)c3c2)o1 [Lapatinib] (partner 2 µM)
How it was run: as §1

Dactolisib + Navitoclax = compound: Cn1c(=O)n(-c2ccc(C(C)(C)C#N)cc2)c2c3cc(-c4cnc5ccccc5c4)ccc3ncc21 [Dactolisib] + CC1(C)CCC(c2ccc(Cl)cc2)=C(CN2CCN(c3ccc(C(=O)NS(=O)(=O)c4ccc(N[C@H](CCN5CCOCC5)CSc5ccccc5)c(S(=O)(=O)C(F)(F)F)c4)cc3)CC2)C1 [Navitoclax] (partner 0.5 µM)
How it was run: as §1

Dactolisib + Palbociclib = compound: Cn1c(=O)n(-c2ccc(C(C)(C)C#N)cc2)c2c3cc(-c4cnc5ccccc5c4)ccc3ncc21 [Dactolisib] + CC(=O)c1c(C)c2cnc(Nc3ccc(N4CCNCC4)cn3)nc2n(C2CCCC2)c1=O [Palbociclib] (partner 0.5 µM)
How it was run: as §1

## UMC-11
AZ505 + Olaparib; first compound 0.08 µM
  relative viability: 0.366
AZ505 + Olaparib; first compound 0.253 µM
  relative viability: 0.372
AZ505 + Olaparib; first compound 0.8 µM
  relative viability: 0.363
AZ505 + Olaparib; first compound 2.53 µM
  relative viability: 0.383
AZ505 + Olaparib; first compound 8 µM
  relative viability: 0.381
Dactolisib + Lapatinib; first compound 0.002 µM
  relative viability: 0.863
Dactolisib + Lapatinib; first compound 0.006325 µM
  relative viability: 0.788
Dactolisib + Lapatinib; first compound 0.02 µM
  relative viability: 0.78
Dactolisib + Lapatinib; first compound 0.06325 µM
  relative viability: 0.316
Dactolisib + Lapatinib; first compound 0.2 µM
  relative viability: 0.272
Dactolisib + Navitoclax; first compound 0.002 µM
  relative viability: 0.339
Dactolisib + Navitoclax; first compound 0.006325 µM
  relative viability: 0.286
Dactolisib + Navitoclax; first compound 0.02 µM
  relative viability: 0.243
Dactolisib + Navitoclax; first compound 0.06325 µM
  relative viability: 0.131
Dactolisib + Navitoclax; first compound 0.2 µM
  relative viability: 0.124
Dactolisib + Palbociclib; first compound 0.002 µM
  relative viability: 0.331
Dactolisib + Palbociclib; first compound 0.006325 µM
  relative viability: 0.311
Dactolisib + Palbociclib; first compound 0.02 µM
  relative viability: 0.344
Dactolisib + Palbociclib; first compound 0.06325 µM
  relative viability: 0.318
Dactolisib + Palbociclib; first compound 0.2 µM
  relative viability: 0.305
